Tests used:
Format in all cases: in vivo, rat
[1] = system: middle cerebral arteries (MCA); test: Pressurized arteriograph: vascular reactivity and structure of MCA from relaxin-treated NP Sprague Dawley rats; settings: relaxin- vs vehicle-treated NP rats
Description: Animals and Treatment Groups: All procedures were approved by the Institutional Animal Care and Use Committee and conducted in accordance with the National Institutes of Health Guide for the Care and Use of Laboratory Animals. Female virgin NP Sprague Dawley rats (250-300 g, 14-16 weeks, Charles River, Canada) were used for all experiments and housed in the University of Vermont Animal Care Facility. Animals were randomly selected and grouped as untreated (N=4), treated with recombinant human relaxin-2 (relaxin, 4 μg/hr; N=14), relaxin plus a specific PPARγ inhibitor GW9662 (10 mg/kg daily in food; N=8), or vehicle (20 mM sodium acetate; N=14) for 10 days through osmotic minipumps (Alzet 2ML2, Durect Corp., Cupertino, Calif., USA). GW9662 treatment was started 1 day before and for the duration of relaxin treatment to ensure PPARγ was inhibited. Animals were anesthetized with 3% isoflurane and minipumps implanted subcutaneously in the back of the neck. All animals received post-surgical analgesic (buprenorphine, 50 μg/kg, s.c.). […]
Vessel Preparation and Pressurized Arteriograph System: After collecting trunk blood, the brain was quickly removed and placed in cold physiological salt solution (PSS). […] Temperature and pH were continuously measured and maintained at 37.0±0.5° C. and 7.40±0.05, respectively. […]
Vascular Reactivity and Structural Characteristics in PA and MCA: For the first set of experiments, PA and MCA were equilibrated for 1 hour at 25 mmHg, after which myogenic activity was determined by stepwise increases in pressure from 40 to 100 mmHg for PA or 50 to 175 mmHg for MCA. ID and WT were measured at each pressure once stable. Changes in ID and WT were measured in PA only in response to small- (SKCa) and intermediate- (IKCa) conductance calcium-activated potassium channels blockers, apamin (3×10^−7 M) and TRAM-34 (10^−6 M), respectively. […] We therefore assessed the effect of relaxin on constriction of PA in response to SKCa/IKCa channel inhibition in order to assess this unique pathway. […]

VEGF = VEGF expression in brain cortex (immunohistochemistry and qPCR), SHR; settings: SHR-F-Rln vs SHR-F
Description: After dissecting PA and MCA for isolated vessel experiments, the remaining MCA, PA, and brain cortex from the MCA territory of 4-6 rats were collected and stored at −80° C. in RNase inhibitor (1 unit/μl, RiboLock, Fermentas, Glen Burnie, Md., USA) to determine mRNA expression levels of target genes using real-time qPCR methods. Target genes were assessed using Assays on Demand from Applied Biosystems. […] All primers were designed across an exon-exon junction to avoid detecting genomic DNA, so no DNase treatment was required. Housekeeping gene β-actin was used in all qPCR experiments as a control. Standard techniques for real-time qPCR were performed by the Vermont Cancer Center DNA analysis facility at the University of Vermont, as described previously (Cipolla, M. J., Smith, J., Kohlmeyer, M. M., and Godfrey, J. A. (2009) SKCa and IKCa Channels, myogenic tone, and vasodilator responses in middle cerebral arteries and parenchymal arterioles: effect of ischemia and reperfusion. Stroke 40, 1451-1457).
(§1) To investigate the mechanisms by which relaxin causes selectively remodeling of PA, mRNA expression of VEGF, MMP-2, and MMP-9 were compared between MCA, PA, brain cortex. To determine if relaxin activates peroxisome proliferator-activated receptor-gamma (PPARγ), expression levels of PPARγ target genes fatty acid binding protein-4 (FABP4) and plasminogen activator inhibitor-1 (PAI-1) were determined in mesenteric adipose tissue. Expression levels of PPARγ and its target genes PAI-1 and liver X receptors-α (LXR-α) were also determined in brain cortex (Chan, S. L., and Cipolla, M. J. (2012) Determination of PPARgamma activity in adipose tissue and spleen. J Immunoassay Immunochem 33, 314-324).
Brain cortex from the MCA region from WKY-F, SHR-F and SHR-F-Rln groups was collected and fixed in 4% formaldehyde for 48 hours at 4° C. and embedded in paraffin. Brain cortex was cut into 5 μm sections. […] Staining intensity was assessed using a semi-quantitative scoring system from 0 (lowest staining intensity) to 5 (highest staining intensity) in a blinded fashion. […]

MMP-2 = MMP-2 mRNA expression (qPCR) in brain cortex and PA, SHR; settings: relaxin-treated SHR
Description: After dissecting PA and MCA for isolated vessel experiments, the remaining MCA, PA, and brain cortex from the MCA territory of 4-6 rats were collected and stored at −80° C. in RNase inhibitor (1 unit/μl, RiboLock, Fermentas, Glen Burnie, Md., USA) to determine mRNA expression levels of target genes using real-time qPCR methods. Target genes were assessed using Assays on Demand from Applied Biosystems. […] All primers were designed across an exon-exon junction to avoid detecting genomic DNA, so no DNase treatment was required. Housekeeping gene β-actin was used in all qPCR experiments as a control. […]
as §1

relaxin
Structure of MCA [1]: no effect | Tone of MCA [1]: did not significantly affect | Active diameters of MCA ([1]; any pressure): no effect | VEGF mRNA expression in brain cortex (VEGF): increased | VEGF immunoreactivity (staining intensity) in brain cortex (VEGF; p<0.05): significantly increased | VEGF mRNA expression in brain cortex (VEGF; listed as Relaxin): significantly increased | MMP-2 expression in brain cortex (MMP-2): increased

— US9393288B2, “Methods of treating diseases associated with PPARγ” (The University of Vermont and State Agricultural College, priority 2012, dated 2016)
